# Where two headings read alike, the source gives them in different places.
# Columns and labels:
# rGmolCSP8 [1] = biological target: T1, rGmolCSP8 (Grapholita molesta, UniProt A0A0M4FML8); assay: Fluorescence competitive binding assay (1-NPN displacement), wild-type
# Experimental: The fluorescence spectra were recorded using a fluorescence spectrophotometer (F-4500, Hitachi, Tokyo, Japan) in a 1 cm light path fluorimeter quartz cuvette with 10 nm slits for excitation and 20 nm slits for emission. […] The fluorescent probe N-phenyl-1-naphthylamine (1-NPN) and all putative ligands used in binding assays were dissolved in methanol (HPLC purity grade) to obtain a 1 mM stock solution. The rGmolCSP8 protein was diluted to in 20 mM Tris–HCl to obtain a 2 μM solution, pH 7.4. […] The fluorescent probe was excited at 337 nm and emission spectra were recorded from 370 to 550 nm. […] Binding data were obtained from three replicates assays for each concentration of each tested ligand.
# rGmolCSP8 [2] = biological target: T1, rGmolCSP8; assay: Effect of pH on the binding affinity of rGmolCSP8
# Experimental: Based on the fluorescent binding assays described above, we further assessed the effects of pH on the binding abilities of GmolCSP8 with strongly bound ligand. The binding affinities of rGmolCSP8 to the representative ligand 1- hexanol were measured at six different pH values (4.0, 5.0, 6.8, 7.4, 8.0, and 8.8) in 20 mM Tris–HCl buffer. pH was adjusted by titrating concentrated hydrochloric acid using a PHS-3E pH meter (Shanghai Precision Scientific Instrument Co., Ltd., Shanghai, China). The binding assays and data processing were performed as described previously.
# FIGURE 7 Effects of pH on the binding affinities of rGmolCSP8 with 1-hexanol. The mixture solution of 2 μM rGmolCSP8 protein and 2 μM 1-NPN was titrated with 1 mM 1-hexanol stock solution to final concentrations of 22 μM. All data represent a mean of three independent measurements, and the bars denote mean ± SEM.
# GmolCSP8-L80A = GmolCSP8-L80A (Grapholita molesta, UniProt A0A0M4FML8, L95A); assay: biochemical; type: binding
# Sequence of GmolCSP8-L80A (A0A0M4FML8 entry or part of it L95A): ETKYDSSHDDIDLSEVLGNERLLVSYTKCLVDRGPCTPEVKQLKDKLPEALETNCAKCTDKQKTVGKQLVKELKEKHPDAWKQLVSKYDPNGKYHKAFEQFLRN
# Experimental: (§1) To determine whether GmolCSP8 is involved in odorant binding, fluorescence competitive binding assays were performed ([Zhong et al., 2012]). The fluorescence spectra were recorded using a fluorescence spectrophotometer (F-4500, Hitachi, Tokyo, Japan) in a 1 cm light path fluorimeter quartz cuvette with 10 nm slits for excitation and 20 nm slits for emission. The selected chemicals are listed in Table 2, and included four sex pheromone components and 34 volatiles from different host plants (peach and pear trees) of G. molesta based on previous investigations ([Natale et al., 2004]; [Lu et al., 2012]; [Najar-Rodriguez et al., 2013b]). The fluorescent probe N-phenyl-1-naphthylamine (1-NPN) and all putative ligands used in binding assays were dissolved in methanol (HPLC purity grade) to obtain a 1 mM stock solution. The rGmolCSP8 protein was diluted to in 20 mM Tris–HCl to obtain a 2 μM solution, pH 7.4. To measure the binding affinity of 1-NPN for GmolCSP8, a 2 μM solution of protein was titrated with aliquots of 1 mM 1-NPN prepared to final concentrations ranging from 1 to 22 μM. The fluorescent probe was excited at 337 nm and emission spectra were recorded from 370 to 550 nm. […] Binding data were obtained from three replicates assays for each concentration of each tested ligand. Dissociation constants (Kd) of protein to 1-NPN were calculated by non-linear regression, using GraphPad Prism 4.00 software (GraphPad Software Inc.). The inhibition constants (Ki) of the competitors were determined using the corresponding IC50 values (concentration of competitor that reduced the initial fluorescence intensity by half) based on the following equation: Ki = [IC50]/(1+[1-NPN]/K1-NPN), where [1-NPN] is the free concentration of 1-NPN and K1-NPN is the dissociation constant of the complex GmolCSP8/1-NPN.
# (§2) To verify the four predicted key amino acid sites of GmolCSP8 binding for 1-hexanol, recombinant plasmids for four CSP8 mutants were obtained via site-directed mutagenesis experiments. Specific primers introducing mutation sites of the four key amino acid CSP8 plasmids (GmolCSP8-T27A, GmolCSP8-L30A, GmolCSP8-V40A, and GmolCSP8-L80A) were designed and are listed in Table 1. The four mutants were mutated by using the TaKaRa MutanBEST Kit (TaKaRa, Shiga, Japan) with the pMD®19-T/GmolCSP8 plasmid DNA as template. All plasmids containing mutations were validated by sequencing with five randomly selected single colonies. pMD®19-T plasmids including four CSP8 mutants were digested with Bam HI and Hind III restriction enzymes. Then, the target sequences were ligated into the expression vector pET28a (+) and transformed into BL21 (DE3) competent cells for expression. After sequencing verification, the corresponding rGmolCSP8 mutant proteins were induced and purified, and the binding affinities to 1-hexanol and its analogs were verified via ligand-binding assays according to the method described above.
# GmolCSP8-L30A = GmolCSP8-L30A (Grapholita molesta, UniProt A0A0M4FML8, L45A); assay: biochemical; type: binding; settings: for binding to mutant L30A (in words): mutant L30A compared with wild-type
# Sequence of GmolCSP8-L30A (A0A0M4FML8 entry or part of it L45A): as the sequence (A0A0M4FML8 entry or part of it L95A) above, with L30A, A80L counted along it
# Experimental: as §1, §2
# GmolCSP8-V40A = GmolCSP8-V40A (Grapholita molesta, UniProt A0A0M4FML8, V55A); assay: biochemical; type: binding
# Sequence of GmolCSP8-V40A (A0A0M4FML8 entry or part of it V55A): as the sequence (A0A0M4FML8 entry or part of it L95A) above, with V40A, A80L counted along it
# Experimental: as §1, §2
# GmolCSP8-T27A = GmolCSP8-T27A (Grapholita molesta, UniProt A0A0M4FML8, T42A); assay: biochemical; type: binding; settings: for fold decrease in binding vs wild-type: mutant T27A compared with wild-type rGmolCSP8
# Sequence of GmolCSP8-T27A (A0A0M4FML8 entry or part of it T42A): as the sequence (A0A0M4FML8 entry or part of it L95A) above, with T27A, A80L counted along it
# Experimental: as §1, §2
# GmolGOBP2 = biological target: GmolGOBP2; set-up: method as in Li et al., 2016a,b; settings: ref Li et al., 2016a,b; cited from earlier work
# GmolOBP15 = biological target: GmolOBP15; set-up: method as in Li et al., 2016a,b; settings: ref Li et al., 2016a,b; cited from earlier work
# GmolOBP8 = biological target: GmolOBP8; set-up: method as in Li et al., 2016a,b; settings: ref Li et al., 2016a,b; cited from earlier work
# [3] = 2 μM rGmolCSP8 and 2 μM 1-NPN, 20 mM Tris-HCl pH 7.4, read-out: IC50
# [4] = 2 μM rGmolCSP8 and 2 μM 1-NPN, pH 7.4, calculated from IC50, read-out: Ki
# [5] = read-out: Ki (μM) T27A, mutant T27A, – = did not displace 50% 1-NPN at ligand up to 24 μM
# [6] = read-out: Ki (μM) L30A, mutant L30A, – = lost ability to bind
# T1 sequence (A0A0M4FML8 entry or part of it): as the sequence (A0A0M4FML8 entry or part of it L95A) above, with A80L counted along it
SMILES,IC50 (rGmolCSP8 [1]; [3]) [µM],Ki (rGmolCSP8 [1]; [4]) [µM],other results
CCC/C=C\CCCCCCCOC(C)=O [(Z)-8-dodecenyl acetate],> 24,> 24,
CCCCCCO [1-hexanol],,,"IC50 (rGmolCSP8 [1]): 2.26 ± 0.34 µM; binding to rGmolCSP8 (in words) (rGmolCSP8 [1]; wild-type rGmolCSP8, pH 7.4): strongest binding affinities; binding affinity (in words) (rGmolCSP8 [2]; pH 4.0): very weak affinity; effect of pH on binding affinity (in words) (rGmolCSP8 [2]; pH 4.0, 5.0, 6.8, 7.4, 8.0, 8.8 in 20 mM Tris-HCl): higher at pH 6.8–8.0 than at pH 4.0–5.0 and 8.8; binding affinity (in words) (rGmolCSP8 [2]; pH 6.8–8.0): strong binding affinity; Ki (GmolCSP8-L80A): 1.8 ± 0.15 µM; Ki (GmolCSP8-L30A): 12.5 ± 1.12 µM; fold decrease in binding vs wild-type (GmolCSP8-L30A; mutant L30A compared with wild-type rGmolCSP8): 6 fold; Ki (GmolCSP8-V40A): 2.67 ± 0.34 µM; IC50 (GmolCSP8-T27A): > 24 µM; binding to mutant T27A (in words) (GmolCSP8-T27A; mutant T27A compared with wild-type): abolished the ability to bind; Ki (GmolCSP8-T27A; [5]): > 24 µM"
CCCCCCCCCCCCCCCCCC [Octadecane],> 24,> 24,
CCCCOC(C)=O [Butyl acetate],,,IC50 (rGmolCSP8 [1]): > 24 µM; Ki (rGmolCSP8 [1]): > 24 µM
O=Cc1ccccc1 [Benzaldehyde],,,"IC50 (rGmolCSP8 [1]): > 24 µM; Ki (rGmolCSP8 [1]): > 24 µM; binding to rGmolCSP8 (in words) (rGmolCSP8 [1]; wild-type rGmolCSP8, pH 7.4): cannot bind"
CCCCCCCCCC [Decane],> 24,> 24,
CCCCCCC=O [Heptanal],> 24,> 24,"binding to rGmolCSP8 (in words) (rGmolCSP8 [1]; wild-type rGmolCSP8, pH 7.4): cannot bind"
CC1=CCC2CC1C2(C)C (stereo not drawn) [α-Pinene],> 24,> 24,"binding to rGmolCSP8 (in words) (rGmolCSP8 [1]; wild-type rGmolCSP8, pH 7.4): cannot bind"
CCCCCO [1-pentanol],8.79 ± 0.99,8.18 ± 0.93,Ki (GmolCSP8-L80A): 6.66 ± 0.64 µM; binding to mutant L30A (in words) (GmolCSP8-L30A): lost its ability to bind; Ki (GmolCSP8-L30A; [6]): > 24 µM; Ki (GmolCSP8-V40A): 12.4 ± 1.41 µM; IC50 (GmolCSP8-T27A): > 24 µM; Ki (GmolCSP8-T27A; [5]): > 24 µM
CCC/C=C/C=O [(E)-2-hexenal],> 24,> 24,"binding to rGmolCSP8 (in words) (rGmolCSP8 [1]; wild-type rGmolCSP8, pH 7.4): cannot bind"
CC/C=C\CCOC(C)=O [Cis-3-hexenyl acetate],> 24,> 24,"binding to rGmolCSP8 (in words) (rGmolCSP8 [1]; wild-type rGmolCSP8, pH 7.4): cannot bind"
CCC/C=C/CCCCCCCOC(C)=O [(E)-8-dodecenyl acetate],> 24,> 24,
CCCCCCCCCCCCCC [Tetradecane],> 24,> 24,
CCCCOC(=O)CCC [Butyl butyrate],> 24,> 24,
CC(=O)OCCC(C)C [Isoamyl acetate],> 24,> 24,
COC(=O)c1ccccc1O [Methyl salicylate],> 24,> 24,
CC(C)CCO [3-methyl-1-butanol],6.6 ± 0.45,6.32 ± 0.52,
CCCCCCC(=O)OCC [Ethyl heptanoate],> 24,> 24,
CCCCCCCCCCCCCCO [1-tetradecanol],,,"IC50 (rGmolCSP8 [1]): > 24 µM; Ki (rGmolCSP8 [1]): > 24 µM; binding to rGmolCSP8 (in words) (rGmolCSP8 [1]; wild-type rGmolCSP8, pH 7.4): unable to bind"

SMILES,IC50 (rGmolCSP8 [1]; [3]) [µM],Ki (rGmolCSP8 [1]; [4]) [µM],other results
CCCCCC(=O)OCCCC [Butyl hexanoate],> 24,> 24,"binding to rGmolCSP8 (in words) (rGmolCSP8 [1]; wild-type rGmolCSP8, pH 7.4): cannot bind"
CCCCCCCCCCCCCCCC [Hexadecane],> 24,> 24,
CCCCCCCO [1-heptanol],6.79 ± 0.56,6.2 ± 0.42,Ki (GmolCSP8-L80A): 6.02 ± 0.66 µM; binding to mutant L30A (in words) (GmolCSP8-L30A): lost its ability to bind; Ki (GmolCSP8-L30A; [6]): > 24 µM; Ki (GmolCSP8-V40A): 9.68 ± 0.75 µM; Ki (GmolCSP8-T27A): 9.01 ± 0.9 µM; fold decrease in binding vs wild-type (GmolCSP8-T27A): 1.5- to 2.0 fold
CCCCCCCCCCCCCCC [Pentadecane],> 24,> 24,
CCCCCCCCCC=O [Decanal],> 24,> 24,
CCCCO [1-butanol],7.32 ± 0.56,6.65 ± 0.52,"Ki (rGmolCSP8 [1]; Table 3, wild-type rGmolCSP8, read-out: Ki (μM) Wild-Type): 6.65 ± 0.52 µM; Ki (GmolCSP8-L80A; mutant L80A, read-out: Ki (μM) L80A): 6.75 ± 0.57 µM; Ki (GmolCSP8-L30A; mutant L30A, – = lost ability to bind, read-out: Ki (μM) L30A): 17.1 ± 1.05 µM; Ki (GmolCSP8-V40A; mutant V40A, read-out: Ki (μM) V40A): 8.07 ± 0.61 µM; IC50 (GmolCSP8-T27A; mutant T27A, ligands up to 24 μM, read-out: ligand concentration displacing 50% 1-NPN from CSP8-T27A/1-NPN complex): > 24 µM; Ki (GmolCSP8-T27A; mutant T27A, – = did not displace 50% 1-NPN at ligand up to 24 μM, read-out: Ki (μM) T27A): > 24 µM"
CCCCCCCC=O [Octanal],> 24,> 24,
CCCC(=O)OCC [Ethyl butyrate],> 24,> 24,
CC/C=C\CC1C(=O)CCC1CC(=O)OC (stereo not drawn) [Methyl jasmonate],> 24,> 24,
CCCCCCCCC=O [Nonanal],> 24,> 24,
C=C/C(C)=C/CCC(=C)C [α-Ocimene],18.9 ± 1.29,17.6 ± 0.81,
N#Cc1ccccc1 [Benzonitrile],> 24,> 24,"binding to rGmolCSP8 (in words) (rGmolCSP8 [1]; wild-type rGmolCSP8, pH 7.4): cannot bind"
CCCCCCCCCCCCO [1-dodecanol],13.5 ± 0.83,12.9 ± 0.56,"binding affinity class (strong/medium/weak) (rGmolCSP8 [1]; wild-type rGmolCSP8, pH 7.4): medium (an IC50 value between 10 and 20 μM indicated that ligands demonstrated medium binding ability to protein); Ki (GmolGOBP2): 1.22 µM; Ki (GmolOBP15): 3.24 µM; Ki (GmolOBP8): 4.39 µM"
CCCCCCCCCCO [1-decanol],7.16 ± 0.58,6.6 ± 0.54,Ki (GmolCSP8-L80A): 6.32 ± 0.65 µM; binding to mutant L30A (in words) (GmolCSP8-L30A): lost its ability to bind; Ki (GmolCSP8-L30A; [6]): > 24 µM; Ki (GmolCSP8-V40A): 7.02 ± 0.47 µM; Ki (GmolCSP8-T27A): 12.7 ± 1.79 µM; fold decrease in binding vs wild-type (GmolCSP8-T27A): 1.5- to 2.0 fold
CCCCCC(=O)OCC [Ethyl hexanoate],> 24,> 24,
CCCCCCOC(C)=O [Hexyl acetate],> 24,> 24,
CC/C=C\CCO [Cis-3-hexen-1-ol],9.14 ± 0.73,8.51 ± 0.68,
CCCCCC=O [Hexanal],> 24,> 24,"binding to rGmolCSP8 (in words) (rGmolCSP8 [1]; wild-type rGmolCSP8, pH 7.4): cannot bind"
CCC/C=C\CCCCCCCO [(Z)-8-dodecenyl alcohol],> 24,> 24,
